According to patent US8058455B2, “Compound signamycin, method for production thereof, and use thereof” (priority 2008, dated 2011):
In brackets after ≈: the same amount, converted by molar mass.

What was measured:
B. cereus ATCC 10702 = assay: Antimicrobial activity (MIC), agar multiple dilution method; type: cell-based; conditions: Bacillus cereus, ATCC10702, Muller Hinton agar, 37° C., 18 hrs.
Experimental: (§1) According to the standard method of Japanese Society of Chemotherapy, signamycin A and signamycin B were measured for antimicrobial spectrum against various microorganisms including drug-resistant bacteria (methicilline resistant bacteria and vancomycin resistant bacteria) on the Muller Hinton agar medium by the multiple dilution method.

B. subtilis PCI 219 = assay: as above; type: cell-based; conditions: Bacillus subtilis, PCI219, Muller Hinton agar, 37° C., 18 hrs.
Experimental: as §1

[1] = tested on: Bacillus subtilis NRRL B-558; assay: as above; type: cell-based; conditions: NRRLB558, Muller Hinton agar, 37° C., 18 hrs.
Experimental: as §1

[2] = tested on: Corynebacterium bovis 1810; assay: as above; type: cell-based; conditions: Muller Hinton agar, 37° C., 18 hrs.
Experimental: as §1

[3] = tested on: E. faecalis NCTC 12201 (VRE, vanA); assay: as above; type: cell-based; conditions: Enterococcus faecalis, 18 h
Experimental: as §1

[4] = tested on: E. faecalis NCTC 12203 (VRE, vanA); assay: as above; type: cell-based; conditions: Enterococcus faecalis, 18 h
Experimental: as §1

E. faecium JCM 5804 = assay: as above; type: cell-based; conditions: Enterococcus faecium, JCM5804, Muller Hinton agar, 37° C., 18 hrs.
Experimental: as §1

[5] = tested on: E. faecium NCTC 12202 (VRE, vanA); assay: as above; type: cell-based; conditions: Enterococcus faecium, 18 h
Experimental: as §1

[6] = tested on: E. faecium NTCTC 12204 (VRE, vanA); assay: as above; type: cell-based; conditions: Enterococcus faecium, 18 h
Experimental: as §1

[7] = tested on: Enterococcus faecalis JCM 5803; assay: as above; type: cell-based; conditions: JCM5803, Muller Hinton agar, 37° C., 18 hrs.
Experimental: as §1

Escherichia coli NIHJ = assay: as above; type: cell-based; conditions: Muller Hinton agar, 37° C., 18 hrs.
Experimental: as §1

M. luteus IFO 3333 = assay: as above; type: cell-based; conditions: Micrococcus luteus, IFO3333, Muller Hinton agar, 37° C., 18 hrs.
Experimental: as §1

M. luteus PCI 1001 = assay: as above; type: cell-based; conditions: Micrococcus luteus, PCI1001, Muller Hinton agar, 37° C., 18 hrs.
Experimental: as §1

[8] = tested on: Micrococcus luteus FDA 16; assay: as above; type: cell-based; conditions: FDA16, Muller Hinton agar, 37° C., 18 hrs.
Experimental: as §1

[9] = tested on: Mycobacterium smegmatis ATCC607; assay: as above; type: cell-based; conditions: Mycolicibacterium smegmatis, Muller Hinton agar, 37° C. 42 hrs.
Experimental: as §1

[10] = tested on: Pseudomonasu aeruginosa A3; assay: as above; type: cell-based; conditions: 18 h
Experimental: as §1

[11] = tested on: S. aureus MRSA No. 17 (MRSA); assay: as above; type: cell-based; conditions: Staphylococcus aureus, 18 h
Experimental: as §1

[12] = tested on: S. aureus MRSA No. 5 (MRSA); assay: as above; type: cell-based; conditions: Staphylococcus aureus, 18 h
Experimental: as §1

S. aureus MS16526 (MRSA) = assay: as above; type: cell-based; conditions: Staphylococcus aureus, 18 h
Experimental: as §1

S. aureus MS9610 (MDR) = assay: as above; type: cell-based; conditions: Staphylococcus aureus, 18 h
Experimental: as §1

S. aureus Smith = assay: as above; type: cell-based; conditions: Staphylococcus aureus, Muller Hinton agar, 37° C., 18 hrs.
Experimental: as §1

[13] = tested on: S. aureus TY-04282 (MRSA); assay: as above; type: cell-based; conditions: Staphylococcus aureus, 18 h
Experimental: as §1

[14] = tested on: Staphylococcus aureus FDA 209P; assay: as above; type: cell-based; conditions: FDA209P, Muller Hinton agar, 37° C., 18 hrs.
Experimental: as §1

[15] = molecular target: T1, YycG of Bacillus subtilis 168 strain (YycG-204-611) (Bacillus subtilis, UniProt Q45614); assay: YycG histidine kinase activity inhibitory test; type: biochemical; conditions: YycG-204-611, [γ-32P]ATP, 30° C.
T1 construct: a region containing the 204th amino acid to the 611th amino acid from the N-terminus; made in house; host or cells: Escherichia coli
T1 sequence (Q45614 204-611): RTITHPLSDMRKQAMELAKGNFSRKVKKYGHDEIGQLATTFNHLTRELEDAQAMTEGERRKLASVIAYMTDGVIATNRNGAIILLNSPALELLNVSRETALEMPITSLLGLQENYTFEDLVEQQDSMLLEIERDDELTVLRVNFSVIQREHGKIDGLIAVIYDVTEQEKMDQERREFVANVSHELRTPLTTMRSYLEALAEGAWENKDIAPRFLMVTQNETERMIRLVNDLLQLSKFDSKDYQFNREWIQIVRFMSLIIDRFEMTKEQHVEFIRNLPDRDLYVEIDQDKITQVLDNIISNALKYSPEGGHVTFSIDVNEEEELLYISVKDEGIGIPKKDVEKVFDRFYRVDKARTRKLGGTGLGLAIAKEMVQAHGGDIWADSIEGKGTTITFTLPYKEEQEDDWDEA
Experimental: Signamycin A and signamycin B were measured for enzyme inhibitory activity against YycG of Bacillus subtilis 168 strain (B. subtilis 168).
(§2) The histidine kinase activity was measured according to the method reported in Biosci. Biotechnol. Biochem., 64, 919-923, 2000.
(§3) A DNA fragment encoding a region containing only the kinase activity domain of YycG (i.e., a region containing the 204th amino acid to the 611th amino acid from the N-terminus) was prepared through PCR from the chromosomal DNA of the Bacillus subtilis 168 strain, and was cloned into the expression vector pET21a (+). The thus-obtained plasmid pET-yycGtru was used to transform Escherichia coli cells. The culture liquid of the thus-transformed strain was treated to purify a protein expressing only the histidine kinase activity domain of YycG (YycG-204-611).
The reaction solution having the following formulation was used for measuring histidine kinase activity: 0.5 μM YycG-204-611, 50 mM Tris-HCl (pH 8.5), 100 mM KCl, 100 mM NH4Cl and 5 mM MgCl2. A 2.5 μM ATP-10 μCi [γ-^32P]ATP mixture was added to the reaction solution to initiate the reaction so that the total amount was adjusted to 10 μL. The resultant mixture was incubated at 30° C. for 10 min. After termination of the reaction, SDS-polyacrylamide gel electrophoresis was performed. […]

[16] = molecular target: VicK of caries bacteria (VicK-31-450) (Streptococcus mutans, UniProt Q8DT64); assay: VicK histidine kinase activity inhibitory test; type: biochemical; conditions: VicK-31-450, [32P]ATP, 25° C.
VicK of caries bacteria (VicK-31-450), sequence (Q8DT64 entry or part of it): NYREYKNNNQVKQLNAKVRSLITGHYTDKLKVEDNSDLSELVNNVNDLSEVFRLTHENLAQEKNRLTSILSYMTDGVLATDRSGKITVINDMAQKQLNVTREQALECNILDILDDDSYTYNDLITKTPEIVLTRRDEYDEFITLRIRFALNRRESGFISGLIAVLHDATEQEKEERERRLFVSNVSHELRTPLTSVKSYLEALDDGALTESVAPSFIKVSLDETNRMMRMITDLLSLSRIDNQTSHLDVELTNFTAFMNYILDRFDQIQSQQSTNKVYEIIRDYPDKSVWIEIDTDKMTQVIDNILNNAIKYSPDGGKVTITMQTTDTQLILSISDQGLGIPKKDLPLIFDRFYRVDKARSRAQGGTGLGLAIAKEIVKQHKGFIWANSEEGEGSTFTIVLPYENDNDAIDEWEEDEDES
Experimental: Signamycin A and signamycin B were measured for enzyme inhibitory activity against VicK of caries bacteria (Streptococcus mutans).
The histidine kinase activity was measured by a modified method of the method reported in Biosci. Biotechnol. Biochem., 64, 919-923, 2000.
as §3, with “VicK” for “YycG”, “31th” for “204th”, “450th” for “611th”, “caries bacteria,” for “Bacillus subtilis 168 strain,”, “pET-SMvicK31-450” for “pET-yycGtru”, “VicK (VicK-31-450).” for “YycG (YycG-204-611).”
The reaction solution having the following formulation was used for measuring histidine kinase activity: […] VicK-31-450, 50 mM Tris-HCl (pH 7.5), 50 mM KCl and 10 mM MgCl2. Signamycin A or signamycin B (1 μL) was added to the reaction solution (7 μl), followed by incubating at 25° C. for 5 min. Subsequently, 2 μL of 12.5 µM ATP containing [^32P]ATP was added to the reaction mixture (final concentration: […]) to initiate the reaction, followed by incubating at 25° C. for 20 min. […]

[17] = molecular target: PehS of soft-rot bacteria MAFF301393 strain (PehS-209-484) (Pectobacterium carotovorum subsp. carotovorum, UniProt Q9ZIN8); assay: PehS histidine kinase activity inhibitory test; type: biochemical, Erwinia carotovora subsp. carotovora MAFF301393; conditions: for inhibitory activity against PehS (in words): summary of Table 2
PehS of soft-rot bacteria MAFF301393 strain (PehS-209-484), sequence (Q9ZIN8 entry or part of it): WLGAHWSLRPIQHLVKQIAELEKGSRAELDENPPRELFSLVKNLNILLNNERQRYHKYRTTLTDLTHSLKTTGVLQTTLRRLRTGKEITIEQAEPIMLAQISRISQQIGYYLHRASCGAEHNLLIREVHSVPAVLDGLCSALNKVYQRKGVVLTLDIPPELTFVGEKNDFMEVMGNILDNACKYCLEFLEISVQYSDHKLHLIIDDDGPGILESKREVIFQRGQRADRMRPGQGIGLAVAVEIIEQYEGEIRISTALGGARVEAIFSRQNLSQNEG
Experimental: Signamycin A and signamycin B were measured for enzyme inhibitory activity against PehS of soft-rot bacteria MAFF301393 strain (Erwinia carotovora subsp. carotovora MAFF301393).
as §2
as §3, with “209th” for “204th”, “484th” for “611th”, “soft-rot bacteria MAFF301393” for “Bacillus subtilis 168”, “pET-pehScM2-2” for “pET-yycGtru”, “PehS (PehS-209-484).” for “YycG (YycG-204-611).”
The reaction solution having the following formulation was used for measuring histidine kinase activity: 4 μM PehS-209-484, 50 mM Tris-HCl (pH 8.5), 100 mM KCl, 100 mM NH4Cl and 5 mM MgCl2. A 2.5 μM ATP-10 μCi [γ-^32P] ATP mixture was added to the reaction solution to initiate the reaction so that the total amount was adjusted to 10 μL. The resultant mixture was incubated at 30° C. for 20 min. After termination of the reaction, SDS-polyacrylamide gel electrophoresis was performed. For measuring inhibitory activity, signamycin A or signamycin B was added to the reaction solution before the addition of the ATP mixture so as to have a predetermined concentration, followed by incubating at 30° C. for 5 min, to thereby determine the 50% inhibitory concentration (IC50) with respect to PehS of soft-rot bacteria.

[18] = tested on: Staphylococcus aureus (S. aureus); assay: Antimicrobial activity, summary in words for the species; type: cell-based; conditions: summary of Table 1
Experimental: as §1

[19] = tested on: Enterococcus (E. faecalis and E. faecium); assay: Antimicrobial activity, summary in words for the genus; type: cell-based; conditions: summary of Table 1
Experimental: as §1

SMILES	MIC (B. cereus ATCC 10702) [µg/mL]	MIC (B. subtilis PCI 219) [µg/mL]	MIC [1] [µg/mL]	MIC [2] [µg/mL]	MIC [3] [µg/mL]	MIC [4] [µg/mL]	MIC (E. faecium JCM 5804) [µg/mL]	MIC [5] [µg/mL]	MIC [6] [µg/mL]	MIC [7] [µg/mL]	MIC (Escherichia coli NIHJ) [µg/mL]	MIC (M. luteus IFO 3333) [µg/mL]	MIC (M. luteus PCI 1001) [µg/mL]	MIC [8] [µg/mL]	MIC [9] [µg/mL]	MIC [10] [µg/mL]	MIC [11] [µg/mL]	MIC [12] [µg/mL]	MIC (S. aureus MS16526 (MRSA)) [µg/mL]	MIC (S. aureus MS9610 (MDR)) [µg/mL]	further results
CCC1C(C)=CC2CC(C)C(O)C(CC)C2C1/C(O)=C1/C(=O)NC(C)C1=O (stereo not drawn) [Signamycin A, signamycin A]	4 (≈ 10.7 µM)	4 (≈ 10.7 µM)	4 (≈ 10.7 µM)	8 (≈ 21.3 µM)	16 (≈ 42.6 µM)	8 (≈ 21.3 µM)	8 (≈ 21.3 µM)	16 (≈ 42.6 µM)	8 (≈ 21.3 µM)	16 (≈ 42.6 µM)	32 (≈ 85.2 µM)	8 (≈ 21.3 µM)	8 (≈ 21.3 µM)	8 (≈ 21.3 µM)	32 (≈ 85.2 µM)	> 100	8 (≈ 21.3 µM)	8 (≈ 21.3 µM)	8 (≈ 21.3 µM)	8 (≈ 21.3 µM)	MIC (S. aureus Smith): 8 µg/mL (≈ 21.3 µM); MIC [13]: 8 µg/mL (≈ 21.3 µM); MIC [14]: 4 µg/mL (≈ 10.7 µM); IC50 [15]: 138 µM; IC50 [16]: 239 µM; IC50 [17]: 33.6 µM; inhibitory activity against PehS (in words) [17]: strong inhibitory activity; antimicrobial activity against Staphylococcus aureus (in words) [18]: high antimicrobial activity
CCCC1C(C)=CC2CC(C)C(O)C(CC)C2C1/C(O)=C1/C(=O)NC(C)C1=O (stereo not drawn) [Signamycin B, signamycin B]	2 (≈ 5.13 µM)	4 (≈ 10.3 µM)	4 (≈ 10.3 µM)	8 (≈ 20.5 µM)	8 (≈ 20.5 µM)	8 (≈ 20.5 µM)	8 (≈ 20.5 µM)	8 (≈ 20.5 µM)	8 (≈ 20.5 µM)	8 (≈ 20.5 µM)	64 (≈ 164 µM)	4 (≈ 10.3 µM)	4 (≈ 10.3 µM)	4 (≈ 10.3 µM)	64 (≈ 164 µM)	> 100	4 (≈ 10.3 µM)	4 (≈ 10.3 µM)	4 (≈ 10.3 µM)	4 (≈ 10.3 µM)	MIC (S. aureus Smith): 4 µg/mL (≈ 10.3 µM); MIC [13]: 4 µg/mL (≈ 10.3 µM); MIC [14]: 4 µg/mL (≈ 10.3 µM); IC50 [15]: 43 µM; IC50 [16]: 62.2 µM; IC50 [17]: 15.7 µM; inhibitory activity against PehS (in words) [17]: strong inhibitory activity; antimicrobial activity against Staphylococcus aureus (in words) [18]: high antimicrobial activity; antimicrobial activity against Enterococcus (in words) [19]: high antimicrobial activity
